Patent publication US20250320506A1, “ULTR[…] M[…]-FREE […] CASCADED AMP[…] POSITIVE FEEDBACK” (Northwestern University, priority 2019, published 2025)

Columns and labels:
[1] = tested on: cell-free protein synthesis; experiment: titration of analyte against an unregulated reporter plasmid (pT7-sfGFP) in a cell-free gene expression reaction; format: biochemical, E. coli; details: 100 μM CuSO4; transcription and translation in vitro
Excerpt: FIG. 4A-D. FIG. 4 illustrates various aspects of the biosensors of the present disclosure. (A) The “enriched” extract that contains the allosteric transcription factor can be mixed against a “blank” unenriched extract to modulate the concentration of the transcription factor in the reaction. (B) For tighter control and specificity of a cascaded system, if T7 RNA polymerase is used to drive expression of the allosteric transcription factor in the host strain of extract, an engineered variant of T7 RNAP may be used as the output of the regulated promoter. Exemplary T7 RNAP mutants are illustrated. […] The E. coli RNAP is used to express four T7 RNAP variants from a mock sensor plasmid (5 nM) that contains the consensus E. coli promoter J23119. The corresponding reporter plasmid is added at 5 nM. The kinetics of T7 RNAP synthesis lead to a time delay of about 20-30 minutes relative to a reaction that uses purified WT T7 RNAP. […] Reporter yields are from triplicates of four-hour sfGFP yields on a plate reader at 30° C. […]
A series of tuning experiments are next used to optimize the sensor. […] This experiment is an isothermal cell-free gene expression reaction held at 30° C. in a plate reader for ˜4 hours using an established set of physiochemical conditions to maximize protein production in general. […]

lead sensor = experiment: crosstalk between four metal-sensing aTFs using cell-free response; format: biochemical; details: heatmap
Excerpt: FIG. 21. Design of mitigating cross-talk of sensors. Experimental measurement of crosstalk between four metal-sensing aTFs using cell-free response. Heatmap is colored more brightly to indicate stronger fluorescent signal.

SMILES | effect on cell-free protein synthesis [1] | crosstalk (fluorescent signal) of metal-sensing aTF sensor with non-cognate metal (lead sensor)
O=S(=O)([O-])[O-].[Cu+2] [CuSO4] | shuts down cell-free protein synthesis | –
[Cd] [cadmium] | – | crosstalk for the lead sensor with cadmium
